From PMC9664485 (European journal of medicinal chemistry, 2022)
“And” between values parts separate entries of the source, which are not always exact repeats. Identical values can stand only once.

Biological target: T1, recombinant human Wip1 (1–420) (Homo sapiens, UniProt O15297)
T1 sequence (O15297 1-420): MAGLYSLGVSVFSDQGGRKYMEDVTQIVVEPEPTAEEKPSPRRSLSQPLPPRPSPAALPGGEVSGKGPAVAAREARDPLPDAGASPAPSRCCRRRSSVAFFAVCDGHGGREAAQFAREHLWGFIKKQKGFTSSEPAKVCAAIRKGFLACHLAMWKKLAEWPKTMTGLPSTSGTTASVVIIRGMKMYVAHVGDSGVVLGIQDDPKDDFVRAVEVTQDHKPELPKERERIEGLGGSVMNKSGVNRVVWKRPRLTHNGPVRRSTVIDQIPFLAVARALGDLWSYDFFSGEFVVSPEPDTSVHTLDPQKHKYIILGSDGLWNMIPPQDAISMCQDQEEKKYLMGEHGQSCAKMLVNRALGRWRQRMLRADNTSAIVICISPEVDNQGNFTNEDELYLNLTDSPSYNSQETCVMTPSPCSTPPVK
Test: Wip1 phosphatase activity inhibition assay
Assay type: biochemical

[1] = variable slope logistic fit of Wip1 inhibition curve
[2] = fixed-slope logistic curve, which assumes the Hill coefficient = 1 (footnote a)

Compound	Hill coefficient [n] [1]	also measured
Nc1ccccc1CC1CCCCC1 [Compound 10, 2-(cyclohexylmethyl)aniline]		Wip1 inhibitory activity (in words): did not have significant inhibitory activity
Nc1ccccc1CCC1CCCCC1 [Compound 12, 2-(2-cyclohexylethyl)aniline]		Wip1 inhibitory activity (in words): did not have significant inhibitory activity
O=C(O)c1cccc(CNc2ccccc2CC2CCCCC2)c1 [Compound 14, 3-(((2-(cyclohexylmethyl)phenyl)amino)methyl)benzoic acid]	1.9 ± 0.4	Wip1 inhibitory activity (in words): modest inhibition
COC(=O)c1ccc(NCc2cccc(C(=O)O)c2)c(CC2CCCCC2)c1 [Compound 15, 3-(((2-(cyclohexylmethyl)-4-(methoxycarbonyl)phenyl)amino)methyl)benzoic acid]	2.8 ± 0.5	
O=C(O)c1cccc(CNc2ccccc2CCC2CCCCC2)c1 [Compound 16, 3-(((2-(2-cyclohexylethyl)phenyl)amino)methyl)benzoic acid]		Wip1 inhibitory activity (in words): modest inhibition
COC(=O)c1ccc(NCc2cccc(C(=O)O)c2)c(CCC2CCCCC2)c1 [Compound 17, 3-(((2-(2-cyclohexylethyl)-4-(methoxycarbonyl)phenyl)amino)methyl)benzoic acid]	4.4 ± 0.4	
Nc1ccc(C(=O)Nc2cccc(OP(=O)(O)O)c2)cc1CC1CCCCC1 [Compound 22a, 3-(4-amino-3-(cyclohexylmethyl)benzamido)phenyl dihydrogen phosphate]	1.2 ± 0.10	
CCCCC(CCCC)CNc1ccc(C(=O)Nc2cccc(OP(=O)(O)O)c2)cc1CC1CCCCC1 [Compound 22b, 3-(4-((2-butylhexyl)amino)-3-(cyclohexylmethyl)benzamido)phenyl dihydrogen phosphate]		Hill coefficient [n] [2]: 1^a
O=C(Nc1cccc(OP(=O)(O)O)c1)c1ccc(NCCCc2ccccc2)c(CC2CCCCC2)c1 [Compound 22c, 3-(3-(cyclohexylmethyl)-4-((3-phenylpropyl)amino)benzamido)phenyl dihydrogen phosphate]		IC50: 165 µM; Hill coefficient [n] [2]: 1^a
COc1ccc(CNc2ccc(C(=O)Nc3cccc(OP(=O)(O)O)c3)cc2CC2CCCCC2)cc1 [Compound 22d, 3-(3-(cyclohexylmethyl)-4-((4-methoxybenzyl)amino)benzamido)phenyl dihydrogen phosphate]	2.0 ± 0.2	
COc1cccc(CNc2ccc(C(=O)Nc3cccc(OP(=O)(O)O)c3)cc2CC2CCCCC2)c1 [Compound 22e, 3-(3-(cyclohexylmethyl)-4-((3-methoxybenzyl)amino)benzamido)phenyl dihydrogen phosphate]	1.3 ± 0.3	
O=C(Nc1cccc(OP(=O)(O)O)c1)c1ccc(NCc2cccc(F)c2)c(CC2CCCCC2)c1 [Compound 22f, 3-(3-(cyclohexylmethyl)-4-((3-fluorobenzyl)amino)benzamido)phenyl dihydrogen phosphate]	3.4 ± 0.4	
O=C(Nc1cccc(OP(=O)(O)O)c1)c1ccc(NCc2ccc(F)cc2)c(CC2CCCCC2)c1 [Compound 22g, 3-(3-(cyclohexylmethyl)-4-((4-fluorobenzyl)amino)benzamido)phenyl dihydrogen phosphate]	3 and 3.0 ± 0.4	
O=C(Nc1cccc(OP(=O)(O)O)c1)c1ccc(NCc2ccc3ccccc3c2)c(CC2CCCCC2)c1 [Compound 22h, 3-(3-(cyclohexylmethyl)-4-((naphthalen-2-ylmethyl)amino)benzamido)phenyl dihydrogen phosphate]		Wip1 inhibitory activity (in words): weak activity; Hill coefficient [n] [2]: 1^a
COc1cc(OC)cc(-c2ccc(CNc3ccc(C(=O)Nc4cccc(OP(=O)(O)O)c4)cc3CC3CCCCC3)cc2)c1 [Compound 22j, 3-(3-(cyclohexylmethyl)-4-(((3’,5’-dimethoxy-[1,1’-biphenyl]-4-yl)methyl)amino)benzamido)phenyl dihydrogen phosphate]	1.8 ± 0.1	
O=C(Nc1cccc(OP(=O)(O)O)c1)c1ccc(NCc2ccc(-c3cccc(Cl)c3)cc2)c(CC2CCCCC2)c1 [Compound 22k, 3-(4-(((3’-chloro-[1,1’-biphenyl]-4-yl)methyl)amino)-3-(cyclohexylmethyl)benzamido)phenyl dihydrogen phosphate]	1.3 ± 0.2	
O=C(Nc1cccc(OP(=O)(O)O)c1)c1ccc(NCc2ccc(-c3cccc(F)c3)cc2)c(CC2CCCCC2)c1 [Compound 22l, 3-(3-(cyclohexylmethyl)-4-(((3’-fluoro-[1,1’-biphenyl]-4-yl)methyl)amino)benzamido)phenyl dihydrogen phosphate]	1.7 ± 0.4	
O=C(Nc1cccc(OP(=O)(O)O)c1)c1ccc(NCc2cc3ccccc3o2)c(CC2CCCCC2)c1 [Compound 22m, 3-(4-((benzofuran-2-ylmethyl)amino)-3-(cyclohexylmethyl)benzamido)phenyl dihydrogen phosphate]	1.5 ± 0.1	
O=C(Nc1cccc(OP(=O)(O)O)c1)c1ccc(NCc2cccnc2)c(CC2CCCCC2)c1 [Compound 22n, 3-(3-(cyclohexylmethyl)-4-((pyridin-3-ylmethyl)amino)benzamido)phenyl dihydrogen phosphate]	1.6 ± 0.2	fold less active (Wip1 IC50) (compared with 22m): 5 fold
O=C(Nc1cccc(OP(=O)(O)O)c1)c1ccc(NCc2ccc(F)cc2)c(Cc2ccccc2)c1 [Compound 29a, 3-(3-benzyl-4-((4-fluorobenzyl)amino)benzamido)phenyl dihydrogen phosphate]	1.7 ± 0.1	fold loss in activity (Wip1 IC50) (compared with 22g): 3 fold
O=C(Nc1cccc(OP(=O)(O)O)c1)c1ccc(NCc2ccc(F)cc2)cc1 [Compound 29b, 3-(4-((4-fluorobenzyl)amino)benzamido)phenyl dihydrogen phosphate]		Wip1 inhibitory activity (in words): almost complete loss of inhibitory activity; Hill coefficient [n] [2]: 1^a
O=C(Nc1ccc(OP(=O)(O)O)cc1)c1ccc(NCc2ccc(F)cc2)c(CC2CCCCC2)c1 [Compound 32a, 4-(3-(cyclohexylmethyl)-4-((4-fluorobenzyl)amino)benzamido)phenyl dihydrogen phosphate]	3.4 ± 0.4	Wip1 inhibitory activity (in words): comparable inhibitory activity with the parent compound 22g
O=C(Nc1cccc(Cl)c1)c1cccc(CNc2ccc(C(=O)Nc3cccc(O)c3)cc2CCC2CCCCC2)c1 [Compound 38c, 4-((3-((3-chlorophenyl)carbamoyl)benzyl)amino)-3-(2-cyclohexylethyl)-N-(3-hydroxyphenyl)benzamide]		Wip1 inhibitory activity (in words): considerable drop in activity; Hill coefficient [n] [2]: 1^a
O=C(Nc1cccc(Cl)c1)c1ccc(CNc2ccc(C(=O)Nc3cccc(OP(=O)(O)O)c3)cc2CC2CCCCC2)cc1 [Compound 40a, 3-(4-((4-((3-chlorophenyl)carbamoyl)benzyl)amino)-3-(cyclohexylmethyl)benzamido)phenyl dihydrogen phosphate]	1.9 ± 0.2	
O=C(Nc1cccc(Cl)c1)c1cccc(CNc2ccc(C(=O)Nc3cccc(OP(=O)(O)O)c3)cc2CCC2CCCCC2)c1 [Compound 40c, 3-(4-((3-((3-chlorophenyl)carbamoyl)benzyl)amino)-3-(2-cyclohexylethyl)benzamido)phenyl dihydrogen phosphate]	1.0 ± 0.1	
O=C(Nc1cccc(Cl)c1)c1cccc(CNc2ccc(C(=O)Nc3cccc(OP(=O)(O)O)c3)cc2C2CC3CCC2C3)c1 (stereo not drawn) [Compound 40d, 3-(3-(bicyclo[2.2.1]heptan-2-yl)-4-((3-((3-chlorophenyl)carbamoyl)benzyl)amino)benzamido)phenyl dihydrogen phosphate]	2.3 ± 0.4	
O=C(Nc1ccc2c(c1)OCO2)c1cccc(CNc2ccc(C(=O)Nc3cccc(OP(=O)(O)O)c3)cc2CC2CCCCC2)c1 [Compound 40e, 3-(4-((3-(benzo[d][1,3]dioxol-5-ylcarbamoyl)benzyl)amino)-3-(cyclohexylmethyl)benzamido)phenyl dihydrogen phosphate]	2.9 ± 0.1	
O=C(Nc1cccc(F)c1)c1cccc(CNc2ccc(C(=O)Nc3cccc(OP(=O)(O)O)c3)cc2CC2CCCCC2)c1 [Compound 40f, 3-(3-(cyclohexylmethyl)-4-((3-((3-fluorophenyl)carbamoyl)benzyl)amino)benzamido)phenyl dihydrogen phosphate]	3.6 ± 0.2	
